According to US20210276960A1, “INHIBITORS OF TISSUE TRANSGLUTAMINASE 2 (TG2) AND USES THEREOF” (Northwestern University, priority 2020, published 2021):

Columns and labels:
[1] = Solubility assay; type: physicochemical; conditions: pH=7.4 PBS buffer, 2% DMSO
Description: Solubility was measured in a 384-well plate using a Synergy HTX plate reader. Starting with a 50 mM DMSO stock solution of test compounds, dilutions were made from 1 to 500 μM final concentrations using acetonitrile, keeping the final DMSO concentration at 2%. UV absorption was measured at 254 nm and absorbance versus concentration was plotted to give a standard curve. A DMSO stock of test compound was also diluted with pH=7.4 PBS buffer to give a final concentration of 250 μM containing 2% DMSO. This mixture was stirred on a plate shaker for 1 hr after which it was centrifuged at 2500 rpm for 3 min. 50 μL of the supernatant was removed, transferred to a 384-well plate, and the UV absorbance at 254 nm was measured. Absorbance of the test compound in PBS buffer was analyzed with the standard curve to determine solubility.

[2] = test system: SKOV3 cells adhesion to FN; experiment: Solid phase adhesion assay to FN, SKOV3; type: cell-based
Description: Cells labeled with calcein AM (Life Technologies, #L3224) were seeded at a density of 4×10^4 cells in 96-well plates pre-coated with FN (5 μg/mL, Sigma, #F1141), and blocked using 1% BSA (Sigma, #A9647) in PBS in the presence of selected compounds diluted at the specified concentrations, in serum free media. After 45 minutes, unattached cells were washed using PBS containing 1 mM MgCl2(Sigma, #M8266) and adherent cells were quantified in a SpectraMaxGeminiXS fluorescence plate reader (Molecular Devices, Palo Alto, Calif.) at 530 nm wavelength. Experiments were performed inquadruplicate and repeated at least twice.

[3] = molecular target: T1, His-tagged TG2 / biotinylated FN42 interaction (Homo sapiens, UniProt P21980); experiment: ELISA of the TG2-FN interaction; type: binding
T1 construct: made in house
T1 sequence (P21980 1-687): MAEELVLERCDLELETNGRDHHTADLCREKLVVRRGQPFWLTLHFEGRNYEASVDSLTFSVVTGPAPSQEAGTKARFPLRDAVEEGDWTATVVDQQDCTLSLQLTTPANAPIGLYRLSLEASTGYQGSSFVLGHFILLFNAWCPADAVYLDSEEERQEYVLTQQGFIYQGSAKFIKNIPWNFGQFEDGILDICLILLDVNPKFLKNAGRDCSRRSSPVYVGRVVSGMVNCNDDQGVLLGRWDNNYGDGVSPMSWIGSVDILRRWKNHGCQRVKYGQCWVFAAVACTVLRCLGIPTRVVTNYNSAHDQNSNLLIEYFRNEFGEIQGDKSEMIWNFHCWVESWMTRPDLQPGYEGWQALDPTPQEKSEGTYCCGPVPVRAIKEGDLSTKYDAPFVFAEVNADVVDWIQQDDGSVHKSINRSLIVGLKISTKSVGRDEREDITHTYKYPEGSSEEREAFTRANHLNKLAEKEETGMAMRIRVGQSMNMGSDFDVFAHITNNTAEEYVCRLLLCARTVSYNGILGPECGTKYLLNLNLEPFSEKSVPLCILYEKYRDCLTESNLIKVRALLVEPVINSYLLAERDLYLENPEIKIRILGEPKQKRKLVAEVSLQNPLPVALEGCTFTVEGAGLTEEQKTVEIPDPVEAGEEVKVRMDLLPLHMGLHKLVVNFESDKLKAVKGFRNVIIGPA
Description: Confirmation using ELISA: An independent ELISA validated inhibition of TG2/FN complex formation by SMIs^11. The ELISA assay measured the binding between His6-TG2 captured to the wells by anti-His antibodies and biotinylated FN42 detectable with streptavidin-HRP (FIG. 12A). […] Selected compounds (at concentrations between 5 and 10 μM) inhibited the ELISA signal by 29.7% to 69.5%^11.
ELISA measured the interaction between recombinant His tagged TG2 (rTG2-His) and the biotinylated 42 kD fragment of FN (FN42) which were expressed and purified, as previously described (Yakubov et al., 2014). Briefly, a mixture of 10 nMrTG2-His and selected SMIs or DMSO was added to 96 well plates pre-coated with monoclonal anti-His antibody (Roche, Indianapolis, Ind.; 1:6000). The mixture was incubated for 1 h at RT with 5 nM biotinylated FN42. After washing, wells were incubated with streptavidin-HRP (Cell Signaling, #3999; 1:2000). The reaction was developed with 3,3′,5,5′tetramethylbenzidine (TMB) substrate (BD Biosciences, #555214) and the optical density at […] was measured by using a BioTek microplate reader (Winooski, Vt., USA). Data shown are means±SEM of two independent experiments (n=6).

Row | SMILES | solubility at 1 h ([1]; aqueous buffer, kinetic from dmso stock) [µM] | cell adhesion to FN, dose dependence ([2]; 2 μM-25 μM) | OC cells' adhesion to FN ([2]; FN 5 μg/mL, FIG. 2E) | inhibition of rTG2-FN42 interaction relative to TG53 ([3]; 10 μM) | solubility at 1 h [1] [µM] | cell adhesion to FN ([2]; 25 μM, FIG. 13A) | inhibition of cell adhesion to FN, TG2 expressing vs AS-TG2 cells ([2]; 25 μM, SKOV3pcDNA3.1 vs SKOV3-ASTG2) | cell adhesion to FN, dose dependence and specificity ([2]; 1-25 μM, TG53 compared with TG288) | binding mode (Lineweaver-Burk plot analysis) [3] | inhibition of ELISA signal ([3]; 5 μM) [%] | Ki ([3]; saturation curves of FN42 with increasing TG53, read-out: inhibition constant Ki) [µM]
1 | Cc1cc(N(C)C)nc(Nc2ccc(NC(=O)Cc3ccccc3)cc2)n1 [MT-4] | 91.5 | dose-dependent inhibitory effect | potently blocked | slightly more potently than TG53 | – | – | – | – | – | – | –
2 | COc1ccc(Cl)cc1C(=O)Nc1ccc(Nc2nc(C)cc(N(C)C)n2)cc1 [TG53] | – | – | – | – | <5 | inhibited cell adhesion | more pronounced in TG2 expressing SKOV3pcDNA3.1 cells | dose-dependent | competes for the same binding site in TG2 as FN42 | 65 | 4.15
